Assay results: paper doi:10.1101/2023.02.27.530254, “Large library docking for cannabinoid-1 receptor agonists with reduced side effects” (bioRxiv, 2024)
Read-outs that look alike come from different tables or passages of the source.

Key:
[1] = target: hCB1 (Homo sapiens, UniProt P21554); experiment: bioSens-All ebBRET effector biosensor signaling profiling, HEK293; assay type: cell-based; set-up: host or cells: HEK293 (HEK293SL clone), transient
Procedure: ebBRET-based effector membrane translocation biosensor assays were conducted at Domain Therapeutics NA Inc. (Montreal, QC, Canada) as previously described. […] HEK293 cells were maintained in Dulbecco’s Modified Eagle Medium (DMEM) (Wisent) supplemented with 1% penicillin- streptomycin (Wisent) and 10% (or 2 % for transfection) fetal bovine serum (Wisent) at 37°C with 5% CO2. All biosensor-coding plasmids and related information are the property of Domain Therapeutics NA Inc. The total amount of transfected DNA was adjusted and kept constant at 1 μg per mL of cell culture to be transfected using salmon sperm DNA (Invitrogen) as ‘carrier’ DNA, PEI (polyethylenimine 25 kDa linear, PolyScience) and DNA (3:1 ml PEI:mg DNA ratio) were first diluted separately in 150 mM NaCl then mixed and incubated for at least 20 minutes at room temperature to allow for the formation of DNA/PEI complexes. During the incubation, HEK293 cells were detached, counted, and re-suspended in maintenance medium to a 350,000 cells per mL density. At the end of the incubation period, the DNA/PEI mixture was added to the cells. Cells were finally distributed in 96-well plates (White Opaque 96-well /Microplates, Greiner) at a density of 35,000 cells per well. Forty-eight hours post-transfection, medium was aspirated and replaced with 100 μl of Hank’s Balanced Salt Solution buffer (HBSS) (Wisent) per well using 450-Select TS Biotek plate washer. After 60 min incubation in this medium, 10 μL of 10 μM e-Coelenterazine Prolume Purple (Methoxy e-CTZ) (Nanolight) was added to each well for a final concentration of 1 μM immediately followed by addition of increasing concentrations of the test compounds to each well using the HP D300 digital dispenser (Tecan). All compounds were assayed at 22 concentrations with each biosensor after a 10-minute room temperature incubation period. […] All BRET ratios were standardized using the universal BRET (uBRET) equation: uBRET=BRETratio-A/B-A×10,000 where A is the BRET ratio obtained from transfection of negative control and B is the BRET ratio obtained from transfection of positive control. […] The data were analyzed using the four-parameter logistic non-linear regression model in GraphPad Prism 9.1 and data were presented as means ± CIs of 1–4 independent experiments.
The SEM was calculated for the logEmax/EC50 ratios using the following equation: SEM=σ/n where σ is the standard deviation, and n is the number of experiments.

[2] = target: T1, CB1 (Rattus norvegicus, UniProt P20272); experiment: Radioligand competition binding with [3H]-CP-55,940, rat brain membranes; conditions: for Emax: read-out: rCB1 binding Emax [SEM]
T1 construct: membrane preparations from rat brain (source of CB1); tissue Bioivt RAT00BRAINMZN; host or cells: rat brain
Procedure: The results were analyzed using nonlinear regression to determine the IC50 and Ki values for each ligand (Prism by GraphPad Software, Inc., San Diego, CA). The Ki values are expressed as the mean of two to three experiments each performed in triplicate.

[3] = HEK293, read-out: hCB1 Gi1 Emax [95% CI]
[4] = HEK293, read-out: hCB1 GoB Emax [95% CI]
[5] = HEK293, read-out: hCB1 Gz Emax [95% CI]
[6] = hCB1 GoB EC50 [95% CI], GoB sensor
[7] = maximal radioligand displacement
[8] = rCB1 binding Ki [95% CI], [3H]-CP-55,940 competition, rat brain membranes
[9] = hCB1 Gi1 EC50 [95% CI], Gi1 sensor

Chain of hCB1 (P21554 whole entry, the tested form may be a part): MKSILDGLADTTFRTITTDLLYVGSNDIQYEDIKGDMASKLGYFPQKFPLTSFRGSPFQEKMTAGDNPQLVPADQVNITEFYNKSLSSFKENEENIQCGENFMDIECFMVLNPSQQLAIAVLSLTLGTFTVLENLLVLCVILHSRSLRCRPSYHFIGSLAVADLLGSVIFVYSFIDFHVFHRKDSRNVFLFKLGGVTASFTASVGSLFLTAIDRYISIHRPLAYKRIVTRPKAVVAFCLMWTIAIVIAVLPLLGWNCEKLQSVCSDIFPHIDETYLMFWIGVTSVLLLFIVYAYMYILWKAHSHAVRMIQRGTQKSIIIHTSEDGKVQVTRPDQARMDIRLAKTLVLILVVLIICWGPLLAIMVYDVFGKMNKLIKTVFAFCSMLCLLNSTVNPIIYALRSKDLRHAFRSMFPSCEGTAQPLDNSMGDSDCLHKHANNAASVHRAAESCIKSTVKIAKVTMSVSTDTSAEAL
T1 sequence (P20272 whole entry): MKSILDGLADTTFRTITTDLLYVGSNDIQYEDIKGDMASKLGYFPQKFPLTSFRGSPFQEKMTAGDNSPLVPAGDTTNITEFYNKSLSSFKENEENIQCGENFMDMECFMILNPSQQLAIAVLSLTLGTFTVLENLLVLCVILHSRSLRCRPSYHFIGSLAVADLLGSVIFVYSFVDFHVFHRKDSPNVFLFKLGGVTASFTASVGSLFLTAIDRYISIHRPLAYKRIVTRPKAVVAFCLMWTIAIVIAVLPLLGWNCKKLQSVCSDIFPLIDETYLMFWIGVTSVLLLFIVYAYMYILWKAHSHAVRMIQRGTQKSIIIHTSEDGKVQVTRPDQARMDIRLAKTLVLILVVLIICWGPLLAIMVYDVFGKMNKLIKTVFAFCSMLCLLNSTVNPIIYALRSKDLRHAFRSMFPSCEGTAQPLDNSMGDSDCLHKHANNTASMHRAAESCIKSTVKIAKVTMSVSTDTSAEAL

SMILES	Emax [1, 3] [%]	Emax [1, 4] [%]	Emax [2, 7] [%]	Ki [2, 8] [nM]	also measured
Cc1cc(C(=O)NC(c2ccccc2)c2ccco2)nn1-c1cccc(C(F)(F)F)c1 (stereo not shown) [‘1081]	49	45	96	116	Emax [1, 5]: 72%; EC50 ([1]; hCB1 Gi1 EC50 [95% CI]): 150 nM; EC50 [1, 6]: 91.7 nM; EC50 ([1]; hCB1 Gz EC50 [95% CI]): 225 nM; EC50 ([1]; hCB1 Gz pEC50 [95% CI]): 200 nM
COC(=O)[C@H](c1cccs1)N(C)C(=O)c1cc(C)n(-c2cccc(C(F)(F)F)c2)n1 [‘1066]	–	–	97	1720	–
Cc1cc(C(=O)N2CC3(CCC3)[C@H]2[C@@H]2CCCO2)nn1-c1cccc(C(F)(F)F)c1 [‘3737a]	98	118	–	–	Emax [1, 5]: 140%; EC50 ([1]; hCB1 Gi1 EC50 [95% CI]): 2800 nM; EC50 ([1]; hCB1 GoB EC50 [95% CI]): 6730 nM; EC50 ([1]; hCB1 Gz EC50 [95% CI]): 2470 nM; EC50 ([1]; hCB1 Gz pEC50 [95% CI]): 2510 nM
COC(=O)C(NC(=O)c1cc(-c2ccccc2)n(-c2cccc(C(F)(F)F)c2)n1)c1cccs1 (stereo not shown) [‘8079]	–	–	104	18.5	–
COC(=O)C(c1ccco1)N(C)C(=O)c1cc(C)n(-c2cccc(C(F)(F)F)c2)n1 (stereo not shown) [‘6425]	–	–	108	934	–
Cc1cc(C(=O)N(C)C(c2ccccc2)c2ccco2)nn1-c1cccc(C(F)(F)F)c1 (stereo not shown) [‘1082]	–	–	94	850	–
Cc1cc(C(=O)N2CC3(CCC3)[C@@H]3COC[C@@H]32)nn1-c1cccc(C(F)(F)F)c1 [10_14]	–	–	–	–	% [3H]-CP-55,940 displacement (mean) from single point screen ([2]; screens at 10 μM (white cells), 1 μM (orange) or 300 nM (green), cell colours not visible): 91.30%
Cc1cc(C(=O)NC(c2ccco2)c2ccco2)nn1-c1cccc(C(F)(F)F)c1 [‘1090]	81	90	99	90.8	Emax [1, 5]: 115%; EC50 [1, 9]: 35.6 nM; EC50 ([1]; hCB1 Gi1 pEC50 [95% CI], Gi1 sensor): 31.6 nM; EC50 [1, 6]: 37.3 nM; EC50 ([1]; hCB1 Gz EC50 [95% CI]): 126 nM
Cc1c(C(=O)OCC2CSc3ccccc3O2)cnn1Cc1ccccc1 (stereo not shown) [‘7800]	34	21	–	1010	EC50 ([1]; hCB1 Gi1 EC50 [95% CI]): 6790 nM; EC50 ([1]; hCB1 GoB EC50 [95% CI]): 597 nM
Cc1cc(C(=O)N(C)C(c2ccco2)c2ccco2)nn1-c1cccc(C(F)(F)F)c1 [‘4388]	–	–	–	–	rCB1 binding pKi [95% CI] ([2]; [3H]-CP-55,940 competition, rat brain membranes): 5.9 [5.7 – 6.0]; rCB1 binding Emax [SEM] [2, 7]: 113%; Ki ([2]; read-out: rCB1 binding Ki [95% CI], [3H]-CP-55,940 competition, rat brain membranes): 1360 nM
Cc1nn(Cc2ccc(Cl)cc2)c(C)c1C(=O)OCC1CSc2ccccc2O1 (stereo not shown) [‘5463]	31	32	88	825	EC50 ([1]; hCB1 Gi1 EC50 [95% CI]): 4940 nM; EC50 ([1]; hCB1 GoB EC50 [95% CI]): 7470 nM
Cc1cc(C(=O)NC(c2ccccc2)c2ccco2)nn1-c1cccc(C#N)c1 (stereo not shown) [‘12565]	28	25	97	301	Emax [1, 5]: 51%; EC50 [1, 9]: 104 nM; EC50 [1, 6]: 44.8 nM; EC50 ([1]; hCB1 GoB pEC50 [95% CI], GoB sensor): 39.8 nM; EC50 ([1]; hCB1 Gz EC50 [95% CI], Gz sensor): 54.6 nM
COC(=O)[C@@H](c1cccs1)N(C)C(=O)c1cc(C)n(-c2cccc(C(F)(F)F)c2)n1 [‘6000]	–	–	96	1460	–
COC(=O)C(NC(=O)c1cc(C)n(-c2cccc(C#N)c2)n1)c1ccsc1 (stereo not shown) [‘31604]	–	–	100	801	–
